Source: the supplement of paper PMC11061612

How the values were obtained:
Assay in all cases: Bliss excess, mean over the matrix (fraction); higher = more synergy
[1] = test system: SW13 (Other Solid Carcinomas)
In short: (§1)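 Cell lines grown in DMEM/F12 or RPMI with 10% FBS were plated in 1536-well plates and held 24 hours at 37°C, 5% CO2 before 72 hours of exposure to two-drug dose matrices, with DMSO typically at 0.2%. CellTiter-Glo 2.0 luminescence gave viability, which was converted to inhibition. Vehicle wells were set to 0 and blank wells to 1. Combination Emax is the second-highest inhibition in the matrix, and Bliss excess is the observed combination effect minus the expected EA + EB − EA·EB, where EA and EB are the single-agent effects.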

[2] = test system: KYSE-450 (Esophageal Squamous Cell Carcinoma)
In short: as §1

[3] = test system: ACHN (Kidney Carcinoma)
In short: as §1

[4] = test system: Ca9-22 (Head and Neck Carcinoma)
In short: as §1

[5] = test system: MIA-PaCa-2 (Pancreatic Carcinoma)
In short: as §1

[6] = test system: D-263MG (Glioblastoma)
In short: as §1

[7] = test system: YH-13 (Glioblastoma)
In short: as §1

[8] = test system: TGW (Neuroblastoma)
In short: as §1

[9] = test system: NCI-H358 (Lung Adenocarcinoma)
In short: as §1

[10] = test system: Caov-4 (Ovarian Carcinoma)
In short: as §1

[11] = test system: EoL-1-cell (Acute Myeloid Leukemia)
In short: as §1

[12] = test system: AMO-1 (Plasma Cell Myeloma)
In short: as §1

[13] = test system: EW-24 (Ewing's Sarcoma)
In short: as §1

[14] = test system: PANC-04-03 (Pancreatic Carcinoma)
In short: as §1

[15] = test system: NCI-H727 (Other Solid Carcinomas)
In short: as §1

[16] = test system: MLMA (Other Blood Carcinomas)
In short: as §1

[17] = test system: Hs-766T (Pancreatic Carcinoma)
In short: as §1

[18] = test system: LU-65 (Non-Small Cell Lung Carcinoma)
In short: as §1

[19] = test system: EFM-19 (Breast Carcinoma)
In short: as §1

[20] = test system: UACC-62 (Melanoma)
In short: as §1

Row | Compound | Bliss excess [1] | Bliss excess [2] | Bliss excess [3] | Bliss excess [4] | Bliss excess [5] | Bliss excess [6] | Bliss excess [7] | Bliss excess [8] | Bliss excess [9] | Bliss excess [10] | Bliss excess [11] | Bliss excess [12] | Bliss excess [13] | Bliss excess [14] | Bliss excess [15] | Bliss excess [16] | Bliss excess [17] | Bliss excess [18] | Bliss excess [19] | Bliss excess [20]
1 | CN(CCO)CC[C@H](CSc1ccccc1)Nc1ccc(S(=O)(=O)NC(=O)c2ccc(N3CCC([C@@H](O)c4ccccc4-c4ccc(Cl)cc4)CC3)cc2)cc1S(=O)(=O)C(F)(F)F [AZD4320] + C1CN(CCC1(C(=O)N[C@@H](CCO)C2=CC=C(C=C2)Cl)N)C3=NC=NC4=C3C=CN4 [Capivasertib] (first compound max 1 µM, 7x7, partner max 3 µM) | -0.0326 | -0.0449 | -0.0341 | -0.0055 | -0.0476 | -0.0512 | -0.0491 | 0.0065 | -0.0172 | -0.0357 | 0.0007 | -0.0045 | -0.0378 | -0.0875 | -0.0891 | 0.0534 | -0.0492 | -0.0108 | -0.0292 | -0.0584
2 | CN(CCO)CC[C@H](CSc1ccccc1)Nc1ccc(S(=O)(=O)NC(=O)c2ccc(N3CCC([C@@H](O)c4ccccc4-c4ccc(Cl)cc4)CC3)cc2)cc1S(=O)(=O)C(F)(F)F [AZD4320] + C=CCn1c(=O)c2cnc(Nc3ccc(N4CCN(C)CC4)cc3)nc2n1-c1cccc(C(C)(C)O)n1 [AZD1775] (first compound max 1 µM, partner max 1 µM) | -0.02 | -0.0535 | 0.0342 | 0.0335 | -0.0176 | -0.0277 | -0.0163 | -0.008 | -0.0765 | -0.0248 | -0.0146 | 0.0119 | 0.119 | -0.048 | -0.0587 | 0.0379 | -0.0431 | -0.0162 | 0.0433 | 0.025
3 | CN(CCO)CC[C@H](CSc1ccccc1)Nc1ccc(S(=O)(=O)NC(=O)c2ccc(N3CCC([C@@H](O)c4ccccc4-c4ccc(Cl)cc4)CC3)cc2)cc1S(=O)(=O)C(F)(F)F [AZD4320] + CC(=O)O[C@H]1C(=O)[C@@]2(C)[C@H]([C@H](OC(=O)c3ccccc3)[C@]3(O)C[C@H](OC(=O)[C@H](O)[C@@H](NC(=O)c4ccccc4)c4ccccc4)C(C)=C1C3(C)C)[C@]1(OC(C)=O)CO[C@@H]1C[C@@H]2O [Paclitaxel] (first compound max 1 µM, 7x7, partner max 3 µM) |  | 0.0129 | -0.0319 | 0.037 | 0.0064 | 0.102 | 0.0619 | -0.0472 | 0.0117 | 0.0863 | -0.0057 | 0.0173 | 0.17 | -0.0033 | 0.101 | 0.0254 | -0.0002 | 0.0224 | 0.0898 | 0.0953
4 | CN(CCO)CC[C@H](CSc1ccccc1)Nc1ccc(S(=O)(=O)NC(=O)c2ccc(N3CCC([C@@H](O)c4ccccc4-c4ccc(Cl)cc4)CC3)cc2)cc1S(=O)(=O)C(F)(F)F [AZD4320] + CCN(CCO)CCCOc1ccc2c(Nc3cc(CC(=O)Nc4cccc(F)c4)[nH]n3)ncnc2c1 [AZD2811] (first compound max 1 µM, 7x7, partner max 1 µM) | -0.0152 | -0.0273 | 0.0089 | 0.0591 | 0.0532 | 0.0665 | 0.0819 | -0.032 | -0.0337 | -0.0141 | -0.002 | -0.0102 | 0.0538 | -0.0435 | -0.0221 | 0.0437 | -0.0485 | -0.0437 | 0.147 | 0.0105
5 | CN(CCO)CC[C@H](CSc1ccccc1)Nc1ccc(S(=O)(=O)NC(=O)c2ccc(N3CCC([C@@H](O)c4ccccc4-c4ccc(Cl)cc4)CC3)cc2)cc1S(=O)(=O)C(F)(F)F [AZD4320] + C[C@@H]1COCCN1C2=NC(=NC(=C2)C3(CC3)[S@](=N)(=O)C)C4=C5C=CNC5=NC=C4 [AZD6738] (first compound max 1 µM, 7x7, partner max 10 µM) | -0.0208 | -0.0496 | -0.0099 | 0.0001 | -0.045 | -0.0424 | -0.0035 | -0.0629 | -0.0195 | -0.027 | 0.0252 |  | 0.0267 | -0.0714 | -0.0735 | 0.0229 | -0.108 | -0.0092 | -0.0511 | -0.0317
6 | CN(CCO)CC[C@H](CSc1ccccc1)Nc1ccc(S(=O)(=O)NC(=O)c2ccc(N3CCC([C@@H](O)c4ccccc4-c4ccc(Cl)cc4)CC3)cc2)cc1S(=O)(=O)C(F)(F)F [AZD4320] + C[C@@H](Nc1cc(F)cc(F)c1)c1cc(C(=O)N(C)C)cc2c(=O)cc(N3CCOCC3)oc12 [AZD8186] (first compound max 1 µM, 7x7, partner max 3 µM) | 0.0064 | -0.07 | 0.0163 | -0.0194 | -0.0084 | 0.0288 | 0.0513 | -0.027 | -0.0461 | 0.0112 | 0.0255 | 0.0318 | -0.0214 | 0.0202 | 0.0309 | 0.0859 | 0.0113 | -0.0216 | -0.0426 | 0.102
7 | CN(CCO)CC[C@H](CSc1ccccc1)Nc1ccc(S(=O)(=O)NC(=O)c2ccc(N3CCC([C@@H](O)c4ccccc4-c4ccc(Cl)cc4)CC3)cc2)cc1S(=O)(=O)C(F)(F)F [AZD4320] + Cc1cc2ncnn2cc1Nc1ncc2c(n1)n(C1CCOCC1)c(=O)n2C [AZD7648] (first compound max 1 µM, 7x7, partner max 10 µM) | -0.0371 | -0.0383 | -0.0186 | -0.0039 | -0.0636 | -0.0192 | -0.0186 | 0.0125 | -0.0394 | -0.0277 | 0.0476 | -0.0243 | -0.0171 | -0.0556 | -0.0609 | 0.0082 | -0.0842 | -0.007 | -0.0326 | -0.0329
8 | CN(CCO)CC[C@H](CSc1ccccc1)Nc1ccc(S(=O)(=O)NC(=O)c2ccc(N3CCC([C@@H](O)c4ccccc4-c4ccc(Cl)cc4)CC3)cc2)cc1S(=O)(=O)C(F)(F)F [AZD4320] + Cn1cnc2c(F)c(Nc3ccc(Br)cc3Cl)c(C(=O)NOCCO)cc21 [Selumetinib] (first compound max 1 µM, 7x7, partner max 3 µM) | 0.0166 | 0.0177 | 0.0429 | 0.0415 | -0.0098 | -0.0094 | -0.0219 | 0.0147 | 0.0054 | 0.0418 | 0.0593 | 0.0579 | -0.0352 | 0.0708 | 0.0963 | 0.0436 | -0.013 | 0.0176 | -0.102 | -0.0035
9 | CN(CCO)CC[C@H](CSc1ccccc1)Nc1ccc(S(=O)(=O)NC(=O)c2ccc(N3CCC([C@@H](O)c4ccccc4-c4ccc(Cl)cc4)CC3)cc2)cc1S(=O)(=O)C(F)(F)F [AZD4320] + Nc1ccn([C@@H]2O[C@H](CO)[C@@H](O)C2(F)F)c(=O)n1 [Gemcitabine] (first compound max 1 µM, 7x7, partner max 0.3 µM) | -0.017 | -0.0497 | 0.0947 | 0.0876 | -0.025 | -0.0625 | 0.0368 | 0.0257 | -0.0227 | -0.0556 | 0.0217 | -0.036 | 0.118 | -0.0496 | 0.0335 | -0.0381 | -0.0777 | -0.0667 | 0.0067 | -0.006
10 | Cc1cc2ncnn2cc1Nc1ncc2c(n1)n(C1CCOCC1)c(=O)n2C [AZD7648] + C=CCn1c(=O)c2cnc(Nc3ccc(N4CCN(C)CC4)cc3)nc2n1-c1cccc(C(C)(C)O)n1 [AZD1775] (first compound max 10 µM, partner max 1 µM) | 0.0004 | -0.03 | -0.0178 | 0.022 | -0.0459 | 0.0037 | 0.0076 | -0.0505 | -0.0156 | 0.0222 | 0.0137 | -0.0422 | -0.0294 | 0.0135 | 0.024 | -0.0665 | -0.0274 | -0.0027 | -0.0596 | 0.0242
11 | Cc1cc2ncnn2cc1Nc1ncc2c(n1)n(C1CCOCC1)c(=O)n2C [AZD7648] + CCN(CCO)CCCOc1ccc2c(Nc3cc(CC(=O)Nc4cccc(F)c4)[nH]n3)ncnc2c1 [AZD2811] (first compound max 10 µM, 7x7, partner max 1 µM) | 0.0406 | 0.0246 | -0.0051 | 0.0541 | 0.0108 | 0.0415 | -0.0762 | 0.0148 | -0.0718 | 0.0293 | -0.0572 | 0.0431 | -0.0051 | -0.0078 | -0.0003 | -0.0095 | -0.0197 | 0.0057 | 0.116 | -0.0027
12 | Cc1cc2ncnn2cc1Nc1ncc2c(n1)n(C1CCOCC1)c(=O)n2C [AZD7648] + CN(C)CCCOc1ccc(-c2ccc3ncc4c(c3c2)n(C2CCOCC2)c(=O)n4C)cn1 [AZD0156] (first compound max 10 µM, 7x7, partner max 1 µM) | 0.0107 | 0.0038 | 0.0104 | 0.0625 | -0.003 | 0.005 | -0.0263 | 0.0804 | 0.0054 | 0.0511 | 0.0279 | 0.0135 | -0.0643 | 0.0016 | 0.0162 | -0.0187 | -0.0324 | 0.0053 | -0.0815 | 0.0247
13 | Cc1cc2ncnn2cc1Nc1ncc2c(n1)n(C1CCOCC1)c(=O)n2C [AZD7648] + COc1cc([C@@H]2c3cc4c(cc3[C@@H](O[C@@H]3O[C@@H]5CO[C@@H](C)O[C@H]5[C@H](O)[C@H]3O)[C@H]3COC(=O)[C@H]23)OCO4)cc(OC)c1O [Etoposide] (first compound max 10 µM, 7x7, partner max 10 µM) | 0.0808 | 0.0385 | 0.0535 | 0.141 | 0.05 | 0.0729 | 0.0877 | 0.0615 | -0.0079 | 0.0606 | 0.191 | 0.138 | 0.0463 | 0.017 | -0.0041 | -0.0968 | -0.0566 | 0.0212 | -0.0295 | 0.045
